Data on 22 molecules can be found in paper PMC9457575 (Molecules, 2022).

Data set [1] concerns the target T1, human CB1 receptor (hCB1) (Homo sapiens, UniProt P21554).
T1 construct: host or cells: Chinese Hamster Ovary (CHO) cells
Nature of the data set: cAMP accumulation assay (Lance TR-FRET) in CHO-hCB1 cells. Format: cell-based. The following applies: for hCB1 cAMP EC50 / EC50: forskolin-stimulated; for hCB1 cAMP EC50 / EC50 / Emax / hCB1 cAMP Efficacy: mean ± SEM; for Emax: read-out: hCB1 cAMP Efficacy, % of the maximum CP55940 (full agonist) signal; for hCB1 cAMP Efficacy: % of the maximum CP55940 (full agonist) signal. Here is the method: The cAMP assays were performed in Chinese Hamster Ovary (CHO) cells (Perkin Elmer, Cat # ES-110-C) stably expressing the human CB1 receptor (hCB1) cultured under standard cell culture conditions (37 °C, 5% carbon dioxide, DMEM media with 1% Penicillin/Streptomycin and 400 µg/mL G418) using the Lance™ assay kit and manufacturer’s instructions were closely followed (Perkin Elmer). In brief, stimulation buffer containing 1X Hank’s Balanced Salt Solution (HBSS), 5 mM HEPES, 0.1% BSA stabilizer, and 0.5 mM final IBMX was prepared and titrated to pH 7.4 at rt. Serial dilutions of the test compounds and 300 nM forskolin, both prepared at 4× the desired final concentration in stimulation buffer, were added to a 96-well white ½ area microplate (PerkinElmer). The CHO-hCB1 cells were lifted with a non-enzymatic solution (Cell-stripper, Mediatech Inc., Orlando, FL, USA), and 4000 cells were added to each well. After incubating for 30 min at room temperature, Eu-cAMP tracer and uLIGHT-anti-cAMP working solutions were added per the manufacturer’s instructions. After incubation for 1 h, the TR-FRET signal (ex 337 nm, em 620 and […]) was read on a CLARIO star multimode plate reader (BMG Biotech, Cary, NC, USA). Data were analyzed using Prism software (GraphPad, La Jolla, CA, USA). Nonlinear regression analysis was performed to fit data and obtain maximum response (Emax), EC50, correlation coefficient (r^2), and other parameters. All experiments were performed in duplicate 2–3 times to ensure reproducibility and data are reported as mean ± standard error of mean unless noted otherwise.
For orientation: cAMP levels reflect the balance of adenylyl cyclase and phosphodiesterase activity.

The nature of data set [2]: Pharmacokinetic evaluation of brain exposure in mice. More on the design: species or system C57BL/6 mice. The following applies: female, C57BL/6, mouse, in vivo, C57BL6 mice, 3 mg/kg IP; for Cmax: brain, 0.5-4 h, read-out: brain maximum (Cmax) concentration; for Kp: read-out: brain:plasma Cmax ratio. The protocol:
Female C57BL/6 mice were bred in house and used at ~10 weeks of age for pharmacokinetic (PK) testing. Three animals were tested per time point. Doses were formulated in 2% NMP in canola oil, and all compounds were delivered at 3 mg/kg by intraperitoneal injection (IP). Tissues were taken at 0.5, 1, 2, and 4 h post dose. Animals were subjected to whole body perfusion using saline prior to tissue collection. Brain samples were homogenized with 50:50 ethanol:water (1:5, v/v). Forty µL of the homogenate, 10 µL of acetonitrile, and 150 µL of 100 ng/mL reserpine in acetonitrile containing 0.1% formic acid were vortexed and centrifuged. Plasma samples were diluted with 10 µL of acetonitrile, 150 µL of 100 ng/mL reserpine in acetonitrile containing 0.1% formic acid, vortexed and centrifuged. Samples were subjected to LC/MS/MS analysis. Standards were prepared in blank samples and used for calibration curves. Chromatography was performed using a Phenomenex Luna C18 column.

The next data set deals with hCB1 (Homo sapiens, UniProt P21554). Nature of the data set: Radioligand displacement of [3H]CP55940. To be noted: average of 3 measurements, read-out: Binding affinity (Ki). Here is the method:
Further characterization of 21 was performed using radioligand displacement of [^3H]CP55940 and equilibrium dissociation constant (Ki) value was determined as described previously. Data reported are average values from 3 measurements with <30% standard error.
A general note: In a radioligand displacement assay an active substance lowers the binding of a labelled ligand.

Where [3] appears, read: CHO cells stably expressing hCB1.
The mark [4] stands for this setting: CHO cells stably expressing hCB1, read-out: hCB1 cAMP EC50.
Where [5] appears, read: hCB1 cAMP EC50, CHO cells stably expressing hCB1.

Entries after “also recorded” stand apart in the source; their conditions may differ. Read-outs that look alike come from different tables or passages of the source.

T1 sequence (P21554 whole entry): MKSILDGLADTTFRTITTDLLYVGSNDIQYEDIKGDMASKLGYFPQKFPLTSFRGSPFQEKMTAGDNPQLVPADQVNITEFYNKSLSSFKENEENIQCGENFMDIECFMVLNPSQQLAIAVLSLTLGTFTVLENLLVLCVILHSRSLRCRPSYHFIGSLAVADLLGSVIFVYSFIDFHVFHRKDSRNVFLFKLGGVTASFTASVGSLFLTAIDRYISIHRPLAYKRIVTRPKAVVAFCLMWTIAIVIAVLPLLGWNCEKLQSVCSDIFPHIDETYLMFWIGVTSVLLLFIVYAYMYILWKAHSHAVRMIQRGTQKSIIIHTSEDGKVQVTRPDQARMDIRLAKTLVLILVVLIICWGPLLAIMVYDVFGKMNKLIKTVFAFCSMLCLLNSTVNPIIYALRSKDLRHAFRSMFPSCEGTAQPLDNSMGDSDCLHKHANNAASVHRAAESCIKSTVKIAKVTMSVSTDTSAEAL
Chain of hCB1 (P21554 whole entry): as above

What is called melting point is the temperature, or range, at which the solid turns liquid. On to `N#Cc1c(Oc2cccc(NS(=O)(=O)Cc3cccc(Cl)c3)c2)cccc1C(F)(F)F` [Compound 12, 1-(3-Chlorophenyl)-N-{3-[2-cyano-3-(trifluoromethyl)phenoxy]phenyl}methanesulfonamide], for which the melting point is 144 to 145 °C. For the same molecule, in data set [1] (setting [3]), the “hCB1 cAMP EC50” value is “loss of activity; also recorded: Inactive”.

As a reminder, the EC50 is the concentration giving half of the maximal effect. The molecule `N#Cc1c(Oc2cccc(NS(=O)(=O)CCCC(F)(F)F)c2)cccc1C(F)(F)F` [Compound 4, N-{3-[2-Cyano-3-(trifluoromethyl)phenoxy]phenyl}-4,4,4-trifluorobutane-1-sulfonamide] yielded a melting point of 96 to 97 °C. Further, the EC50 in data set [1] (setting [4]) is 190 ± 46 nM. Moreover, the Emax in data set [1] is 96%.

`N#Cc1c(Oc2cccc(NS(=O)(=O)Cc3ccccc3)c2)cccc1C(F)(F)F` [Compound 8, N-{3-[2-Cyano-3-(trifluoromethyl)phenoxy]phenyl}-1-phenylmethanesulfonamide] came in with a melting point of 131 to 132 °C. Moreover, the EC50 in data set [1] (setting [4]) stood at 228 ± 134 nM. The Emax in data set [1] was 102%.

`N#Cc1c(Oc2cccc(NC(=O)Cc3ccccc3)c2)cccc1C(F)(F)F` [Compound 20, N-{3-[2-Cyano-3-(trifluoromethyl)phenoxy]phenyl}-2-phenylacetamide] gave a melting point of 136 to 137 °C. Also, the EC50 in data set [1] (setting [4]) was 474 ± 174 nM. Besides, the Emax in data set [1] is below 20%.

The molecule `O=S(=O)(Cc1ccccc1)Nc1cccc(Oc2cccc(C(F)(F)F)c2Cl)c1` [Compound 9, N-{3-[2-Chloro-3-(trifluoromethyl)phenoxy]phenyl}-1-phenylmethanesulfonamide] had a melting point of 129 to 130 °C. Moreover, in data set [1] (setting [4]), the EC50 was determined as 255 ± 62 nM. Moreover, in data set [1], the Emax was 78%.

In the case of `O=S(=O)(CCCC(F)(F)F)Nc1cccc(Oc2cccc(C(F)(F)F)c2Cl)c1` [Compound 5, N-{3-[2-Chloro-3-(trifluoromethyl)phenoxy]phenyl}-4,4,4-trifluorobutane-1-sulfonamide], the EC50 in data set [1] (setting [4]) was 175 ± 42 nM. The Emax in data set [1] was 95%.

`N#Cc1ccccc1Oc1cccc(NS(=O)(=O)CCCC(F)(F)F)c1` [Compound 6, N-[3-(2-Cyanophenoxy)phenyl]-4,4,4-trifluorobutane-1-sulfonamide]: in data set [1] (setting [4]), the EC50 came out at 106 ± 8 nM. Moreover, the Emax in data set [1] is 95%.

As for `N#Cc1c(Oc2cccc(NS(=O)(=O)c3cccc(OC(F)(F)F)c3)c2)cccc1C(F)(F)F` [Compound 14, N-{3-[2-Cyano-3-(trifluoromethyl)phenoxy]phenyl}-3-(trifluoromethoxy)benzene-1-sulfonamide], the melting point is 120 to 121 °C. For the same molecule, in data set [1] (setting [3]), the “hCB1 cAMP EC50” value is “Inactive”.

In turn, `N#Cc1c(Oc2cccc(NS(=O)(=O)c3ccc(OC(F)(F)F)cc3)c2)cccc1C(F)(F)F` [Compound 15, N-{3-[2-Cyano-3-(trifluoromethyl)phenoxy]phenyl}-4-(trifluoromethoxy)benzene-1-sulfonamide] displayed a melting point of 164 to 165 °C. The “hCB1 cAMP EC50” value in data set [1] (setting [3]) was “Inactive”.

Turning to `CCCCOC(=O)Nc1cccc(Oc2cccc(C(F)(F)F)c2C#N)c1` [Compound 17, Butyl N-{3-[2-Cyano-3-(trifluoromethyl)phenoxy]phenyl}carbamate], in data set [1] (setting [3]), the “hCB1 cAMP EC50” value is “Inactive”.

The molecule `N#Cc1c(Oc2cccc(NS(=O)(=O)Cc3ccc(Cl)cc3)c2)cccc1C(F)(F)F` [Compound 13, 1-(4-Chlorophenyl)-N-{3-[2-cyano-3-(trifluoromethyl)phenoxy]phenyl}methanesulfonamide] registered a melting point of 115 to 116 °C. Further, the “hCB1 cAMP potency compared to the unsubstituted benzylsulfonamide 8” value in data set [1] (fold more potent than 8) is recorded as “about 10 ×”. In data set [1] (setting [5]), it took 25 ± 4 nM to reach a half-maximal effect (EC50). The Emax in data set [1] is 95%.

Take `CCCCNC(=O)Nc1cccc(Oc2cccc(C(F)(F)F)c2C#N)c1` [Compound 18, 3-Butyl-1-{3-[2-cyano-3-(trifluoromethyl)phenoxy]phenyl}urea]: the “hCB1 cAMP EC50” value in data set [1] (setting [3]) was “Inactive”.

In the case of `CCCCCS(=O)(=O)Nc1ccc(Oc2cccc(C(F)(F)F)c2C#N)cc1` [Compound 22, N-{4-[2-Cyano-3-(trifluoromethyl)phenoxy]phenyl}pentane-1-sulfonamide], the melting point is 94 to 95 °C. For the same molecule, the “hCB1 cAMP EC50” value in data set [1] (setting [3]) is reported as “Inactive”.

The molecule `CCCCCC(=O)Nc1cccc(Oc2cccc(C(F)(F)F)c2C#N)c1` [Compound 16, N-{3-[2-Cyano-3-(trifluoromethyl)phenoxy]phenyl}hexanamide] showed a melting point of 95 to 96 °C. In addition, the “hCB1 cAMP EC50” value in data set [1] (setting [3]) was “Inactive”.

The Ki is the equilibrium dissociation constant of an inhibitor or competing ligand from its target. For `N#Cc1c(Oc2cccc(NS(=O)(=O)NC3CCCCC3)c2)cccc1C(F)(F)F` [Compound 21, N-Cyclohexyl({3-[2-cyano-3-(trifluoromethyl)phenoxy]phenyl}mamino)sulfonamide], the melting point is 199 to 200 °C. Besides, in data set [1], the “hCB1 cAMP Efficacy” value came to 27 ± 18% and the Emax is 27%. Moreover, the EC50 in data set [1] (setting [5]) came out at 139 ± 24 nM. Moreover, in data set [2], the Cmax was around 75 ng/mL and the Kp was found to be 0.17. Besides, the Ki on hCB1 was around 1500 nM.

With `N#Cc1c(Oc2cccc(OS(=O)(=O)CCCC(F)(F)F)c2)cccc1C(F)(F)F` [Compound 1, 3-[2-Cyano-3-(trifluoromethyl)phenoxy]phenyl-4,4,4-trifluoro-1-butanesulfonate, reference compound], in data set [1], the “hCB1 cAMP Efficacy” value stood at 39 ± 11%. The same molecule returned an EC50 in data set [1] (setting [5]) of 46 ± 5 nM. In data set [2], the Cmax was around 341 ng/mL and the Kp was determined as 0.4.

Molecule `N#Cc1c(Oc2ccc(NC(=O)Cc3ccccc3)cc2)cccc1C(F)(F)F` [Compound 24, N-{4-[2-Cyano-3-(trifluoromethyl)phenoxy]phenyl}-2-phenylacetamide] had a melting point of 200 to 201 °C. In addition, in data set [1], the “hCB1 cAMP Efficacy” value stood at 36 ± 14% and the Emax worked out at 36%. Besides, the EC50 in data set [1] (setting [4]) was 366 ± 136 nM. In addition, in data set [2], the Cmax is around 730 ng/mL and the Kp worked out at 0.79.

Consider `N#Cc1c(Oc2ccc(NS(=O)(=O)Cc3ccccc3)cc2)cccc1C(F)(F)F` [Compound 23, N-{4-[2-Cyano-3-(trifluoromethyl)phenoxy]phenyl}-1-phenylmethanesulfonamide], for which the melting point lay within 166 to 167 °C. The “hCB1 cAMP EC50” value in data set [1] (setting [3]) is “Inactive”.

With `N#Cc1c(Oc2cccc(NS(=O)(=O)Cc3ccccc3Cl)c2)cccc1C(F)(F)F` [Compound 11, 1-(2-Chlorophenyl)-N-{3-[2-cyano-3-(trifluoromethyl)phenoxy]phenyl}methanesulfonamide], the melting point was in the range of 121 to 122 °C. The “hCB1 cAMP EC50” value in data set [1] (setting [3]) is recorded as “loss of activity; also recorded: Inactive”.

With `CCCCCS(=O)(=O)Nc1cccc(Oc2cccc(C(F)(F)F)c2C#N)c1` [Compound 7, N-{3-[2-Cyano-3-(trifluoromethyl)phenoxy]phenyl}pentane-1-sulfonamide], in data set [1] (setting [4]), the EC50 was 248 ± 108 nM. In addition, the Emax in data set [1] is 76%.

On to `CCCCN(C)C(=O)Nc1cccc(Oc2cccc(C(F)(F)F)c2C#N)c1` [Compound 19, 3-Butyl-1-{3-[2-cyano-3-(trifluoromethyl)phenoxy]phenyl}-3-methylurea], for which the “hCB1 cAMP EC50” value in data set [1] (setting [3]) was “Inactive”.

`N#Cc1ccccc1Oc1cccc(NS(=O)(=O)Cc2ccccc2)c1` [Compound 10, N-[3-(2-Cyanophenoxy)phenyl]-1-phenylmethanesulfonamide]: the EC50 in data set [1] (setting [4]) is 164 ± 32 nM. In addition, in data set [1], the Emax was 82%.
